system: JAK1 pathway (P-STAT6 in TF-1 human erythroleukemia cells + IL-13); test: P-STAT6 TF-1+Interleukin-13 (IL-13) assay; format: cell-based; conditions: Homo sapiens, TF-1, 0.5 h, TF-1 cells, 30 minutes compound, IL-13 10 minutes; IC50 by four-parameter fit; read-out: Cellular PSTAT6 TF-1 + IL13
Description: TF-1 human erythroleukemia cells (ATCC®; Manassas, VA; Catalog No. CRL-2003™) were grown in Roswell Park Memorial Institute (RPMI) medium supplemented with 10% heat-inactivated fetal bovine serum (FBS), 2 ng/mL granulocyte-macrophage colony-stimulating factor, 1× non-essential amino acids (NEAA), and 1 mM sodium pyruvate. The day before the assay, the cultures were transferred to Opti-MEM™, 1×NEAA, 1 mM sodium pyruvate, and 0.5% charcoal-stripped FBS (starve medium). Inhibitor stock solutions (5 mM in DMSO) were serially diluted 1:2 in DMSO to generate a 10-point concentration titration (at 500× test concentration), which was further diluted by a 50-fold dilution in Assay Medium (RPMI containing 1×NEAA and 1 mM sodium pyruvate) to generate a 10× concentration titration (in 2% DMSO). The cells (300,000 cells/well in 35 μL of Assay Medium) were seeded in 384-well Greiner plates. Diluted inhibitor at 10× concentration (5 μL) was added to the cells and the plates were incubated for 30 minutes at 37° C. in a humidified incubator. Cells were stimulated with the human recombinant cytokine at the respective EC90 concentrations, as previously determined for each individual lot. For the phosphorylated signal transducer and activator of transcription 6 (P-STAT6) TF-1+Interleukin-13 (IL-13) assay, 10 μL of 250 ng/mL IL-13 (R&D Systems; Minneapolis, MN) was added to the cells, which were then incubated for 10 minutes at 37° C. For the P-STAT5 TF-1+Erythropoietin (EPO) assay, 10 μL of 110 IU/mL EPO (Gibco Life Technologies, Catalog No. PHC2054) was added to the cells, which were then incubated for 30 min at 37° C. For both assays, the incubation was followed by addition to the cells of 5 μL of ice-cold 10× cell lysis buffer (Cell Signaling Technologies; Danvers, MA; Catalog No. 9803S) containing 1 mM phenylmethylsulfonyl fluoride (PMSF). Assay plates were frozen at −80° C. for a minimum of 1 hour. In the IL-13 assay, P-STAT6 was measured by coating goat anti-rabbit (GAR) plates (Meso Scale Discovery [MSD]; Rockville, MD; Catalog No. MSD L21RA-1) with rabbit anti-human total STAT6 antibody (Cell Signaling Technologies; Catalog No. 9362S), incubating the cell lysates in the coated plates overnight at 4° C., and then detecting with mouse anti-P-STAT6 (Tyr641) Clone 16E12 antibody (MilliporeSigma; Burlington, MA; Catalog No. 05-590, custom labeled by MSD with SULFO-tag) using standard MSD plate processing, washing, and detection protocols. In the EPO assay, P-STAT5 was detected using the phospho-STAT5a,b Whole Cell Lysate Kit (MSD; Catalog No. K150IGD-1). The electrochemiluminescence (ECL) signal of wells was read on the MESO SECTOR S600 (MSD) reader.
Data analysis was performed by subtracting the negative control (cytokine stimulated and 20 μM control inhibitor-treated cells) mean ECL value from the ECL value of all wells, determining percent of control for test compound well ECL values relative to the positive control (cytokine stimulated and DMSO-treated cells) mean ECL value, and determining the IC50 for test compounds with a four-parameter logistic fit model as shown in Equation 4.

Row | Structure (SMILES) | IC50
1 | CN1CC(N2CC(n3nnc(Cn4cc(NC(=O)c5cnn6cccnc56)c(-c5cc(OC(F)F)ccc5OC(F)F)n4)n3)C2)C1 [Example 78, N-[3-[2,5-bis(difluoromethoxy)phenyl]-1-[[2-[1-(1-methylazetidin-3-yl)azetidin-3-yl]tetrazol-5-yl]methyl]pyrazol-4-yl]pyrazolo[1,5-a]pyrimidine-3-carboxamide; formic acid] | 62 nM
2 | O=C(Nc1cn(Cc2nnnn2C2CNC2)nc1-c1cc(OC(F)F)ccc1OC(F)F)c1cnn2cccnc12 [Example 12, N-[1-[[1-(azetidin-3-yl)tetrazol-5-yl]methyl]-3-[2,5-bis(difluoromethoxy)phenyl]pyrazol-4-yl]pyrazolo[1,5-a]pyrimidine-3-carboxamide] | 22 nM
3 | CSc1ccc(OC(F)F)c(-c2nn(Cc3nnn(C4CN(CCCN(C)C)C4)n3)cc2NC(=O)c2cnn3cccnc23)c1 [Example 58, N-[3-[2-(difluoromethoxy)-5-methylsulfanyl-phenyl]-1-[[2-[1-[3-(dimethylamino)propyl]azetidin-3-yl]tetrazol-5-yl]methyl]pyrazol-4-yl]pyrazolo[1,5-a]pyrimidine-3-carboxamide] | 51 nM
4 | CN1CCC(n2nnc(Cn3cc(NC(=O)c4cnn5cccnc45)c(-c4cc(OC(F)F)ccc4OC(F)F)n3)n2)CC1 [Example 22] | 4.8 nM
5 | CN(C)CCN1CC(n2nnc(Cn3cc(NC(=O)c4cnn5cccnc45)c(-c4cc(Cl)ccc4OC(F)F)n3)n2)C1 [Example 37, N-[3-[5-chloro-2-(difluoromethoxy)phenyl]-1-[[2-[1-[2-(dimethylamino)ethyl]azetidin-3-yl]tetrazol-5-yl]methyl]pyrazol-4-yl]pyrazolo[1,5-a]pyrimidine-3-carboxamide] | 6.9 nM
6 | CN1CC(n2nnc(Cn3cc(NC(=O)c4cnn5cccnc45)c(-c4cc(C5CC5)ccc4OC(F)F)n3)n2)C1 [Example 23, N-[3-[5-cyclopropyl-2-(difluoromethoxy)phenyl]-1-[[2-(1-methylazetidin-3-yl)tetrazol-5-yl]methyl]pyrazol-4-yl]pyrazolo[1,5-a]pyrimidine-3-carboxamide] | 7.4 nM
7 | O=C(Nc1cn(Cc2nnn(C3CCNCC3)n2)nc1-c1cc(OC(F)F)ccc1OC(F)F)c1cnn2cccnc12 [Example 18, N-[3-[2,5-bis(difluoromethoxy)phenyl]-1-[[2-(4-piperidyl)tetrazol-5-yl]methyl]pyrazol-4-yl]pyrazolo[1,5-a]pyrimidine-3-carboxamide] | 20 nM
8 | CNCCn1nnnc1Cn1cc(NC(=O)c2cnn3cccnc23)c(-c2cc(OC(F)F)ccc2OC(F)F)n1 [Example 19, N-[3-[2,5-bis(difluoromethoxy)phenyl]-1-[[1-[2-(methylamino)ethyl]tetrazol-5-yl]methyl]pyrazol-4-yl]pyrazolo[1,5-a]pyrimidine-3-carboxamide] | 7 nM

Continued by falling IC50, values first:

Row | IC50 | Structure (SMILES)
9 | 45 nM | NCCn1nnnc1Cn1cc(NC(=O)c2cnn3cccnc23)c(-c2cc(OC(F)F)ccc2OC(F)F)n1 [Example 14, N-[1-[[1-(2-aminoethyl)tetrazol-5-yl]methyl]-3-[2,5-bis(difluoromethoxy)phenyl]pyrazol-4-yl]pyrazolo[1,5-a]pyrimidine-3-carboxamide]
10 | 40 nM | CN(C)CCN1CC(n2nnc(Cn3cc(NC(=O)c4cnn5cccnc45)c(-c4cc(OC(F)F)ccc4OC(F)F)n3)n2)C1 [Example 21, N-[3-[2,5-bis(difluoromethoxy)phenyl]-1-[[2-[1-[2-(dimethylamino)ethyl]azetidin-3-yl]tetrazol-5-yl]methyl]pyrazol-4-yl]pyrazolo[1,5-a]pyrimidine-3-carboxamide]
11 | 33 nM | CN(C)CCN1CCC(n2nnc(Cn3cc(NC(=O)c4cnn5cccnc45)c(-c4cc(OC(F)F)ccc4OC(F)F)n3)n2)CC1 [Example 61, N-[3-[2,5-bis(difluoromethoxy)phenyl]-1-[[2-[1-[2-(dimethylamino)ethyl]-4-piperidyl]tetrazol-5-yl]methyl]pyrazol-4-yl]pyrazolo[1,5-a]pyrimidine-3-carboxamide]
12 | 30 nM | CN(C)[C@H]1C[C@H](N2CC(n3nnc(Cn4cc(NC(=O)c5cnn6cccnc56)c(-c5cc(OC(F)F)ccc5OC(F)F)n4)n3)C2)C1 [Example 70, N-[3-[2,5-bis(difluoromethoxy)phenyl]-1-[[2-[1-[3-(dimethylamino)cyclobutyl]azetidin-3-yl]tetrazol-5-yl]methyl]pyrazol-4-yl]pyrazolo[1,5-a]pyrimidine-3-carboxamide]
13 | 18 nM | NCCn1nnc(Cn2cc(NC(=O)c3cnn4cccnc34)c(-c3cc(OC(F)F)ccc3OC(F)F)n2)n1 [Example 13, N-[1-[[2-(2-aminoethyl)tetrazol-5-yl]methyl]-3-[2,5-bis(difluoromethoxy)phenyl]pyrazol-4-yl]pyrazolo[1,5-a]pyrimidine-3-carboxamide]
14 | 13 nM | CN(CCN1CC(n2nnc(Cn3cc(NC(=O)c4cnn5cccnc45)c(-c4cc(OC(F)F)ccc4OC(F)F)n3)n2)C1)C(=O)OC(C)(C)C [Example 31, tert-butyl N-[2-[3-[5-[[3-[2,5-bis(difluoromethoxy)phenyl]-4-(pyrazolo[1,5-a]pyrimidine-3-carbonylamino)pyrazol-1-yl]methyl]tetrazol-2-yl]azetidin-1-yl]ethyl]-N-methyl-carbamate]
15 | 12 nM | CN(C)CCn1nnc(Cn2cc(NC(=O)c3cnn4cccnc34)c(-c3cc(OC(F)F)ccc3OC(F)F)n2)n1 [Example 16, N-[3-[2,5-bis(difluoromethoxy)phenyl]-1-[[2-[2-(dimethylamino)ethyl]tetrazol-5-yl]methyl]pyrazol-4-yl]pyrazolo[1,5-a]pyrimidine-3-carboxamide]
16 | 9.5 nM | O=C(Nc1cn(Cc2nnn(C3CNC3)n2)nc1-c1cc(OC(F)F)ccc1OC(F)F)c1cnn2cccnc12 [Example 11, N-[1-[[2-(azetidin-3-yl)tetrazol-5-yl]methyl]-3-[2,5-bis(difluoromethoxy)phenyl]pyrazol-4-yl]pyrazolo[1,5-a]pyrimidine-3-carboxamide]
17 | 5 nM | CN1CC(n2nnc(Cn3cc(NC(=O)c4cnn5cccnc45)c(-c4cc(Cl)ccc4OC(F)F)n3)n2)C1 [Example 7, N-[3-[5-chloro-2-(difluoromethoxy)phenyl]-1-[[2-(1-methylazetidin-3-yl)tetrazol-5-yl]methyl]pyrazol-4-yl]pyrazolo[1,5-a]pyrimidine-3-carboxamide]
18 | 4 nM | CN1CC(n2nnc(Cn3cc(NC(=O)c4cnn5cccnc45)c(-c4cc(OC(F)F)ccc4OC(F)F)n3)n2)C1 [Example 10, N-[3-[2,5-bis(difluoromethoxy)phenyl]-1-[[2-(1-methylazetidin-3-yl)tetrazol-5-yl]methyl]pyrazol-4-yl]pyrazolo[1,5-a]pyrimidine-3-carboxamide]
19 | 3.4 nM | CN1CC(n2nnnc2Cn2cc(NC(=O)c3cnn4cccnc34)c(-c3cc(Cl)ccc3OC(F)F)n2)C1 [Example 15, N-[3-[5-chloro-2-(difluoromethoxy)phenyl]-1-[[1-(1-methylazetidin-3-yl)tetrazol-5-yl]methyl]pyrazol-4-yl]pyrazolo[1,5-a]pyrimidine-3-carboxamide]
20 | 2.7 nM | CN(C)CCn1nnnc1Cn1cc(NC(=O)c2cnn3cccnc23)c(-c2cc(OC(F)F)ccc2OC(F)F)n1 [Example 17, N-[3-[2,5-bis(difluoromethoxy)phenyl]-1-[[1-[2-(dimethylamino)ethyl]tetrazol-5-yl]methyl]pyrazol-4-yl]pyrazolo[1,5-a]pyrimidine-3-carboxamide]
